Where a name gives a salt, the structure may show the parent alone.
What was measured:
BT-474 Tam1 [1] = test: drug sensitivity score (DSS) (DSS (dimensionless)); higher = more sensitive; extreme values may be limits of the assay; details: 4-OH-tamoxifen in medium 1 µM; 72 h
Description: (§1)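 FIMM FO2B library drugs were tested at 5 concentrations (10,000-fold range) for 72 h, with CellTiter-Glo viability normalised to DMSO and benzethonium chloride controls. The Drug Sensitivity Score (DSS) is computed from the fitted logistic dose-response curve (area-based; 0 = inactive). Resistant lines and the 'in 1µM tamoxifen' arms were tested in 1 µM 4-OH-tamoxifen.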

BT-474 Tam2 [2] = test: as above; details: 4-OH-tamoxifen in medium 1 µM; 72 h
Description: as §1

BT-474 [3] = test: as above; details: 72 h
Description: as §1

MCF-7 Tam1 [4] = test: as above; details: 4-OH-tamoxifen in medium 1 µM; 72 h
Description: as §1

MCF-7 [5] = test: as above; details: 72 h
Description: as §1

T-47D Tam1 [6] = test: as above; details: 4-OH-tamoxifen in medium 1 µM; 72 h
Description: as §1

T-47D Tam2 [7] = test: as above; details: 4-OH-tamoxifen in medium 1 µM; 72 h
Description: as §1

T-47D [8] = test: as above; details: 72 h
Description: as §1

ZR-75-1 Tam1 [9] = test: as above; details: 4-OH-tamoxifen in medium 1 µM; 72 h
Description: as §1

ZR-75-1 Tam2 [10] = test: as above; details: 4-OH-tamoxifen in medium 1 µM; 72 h
Description: as §1

ZR-75-1 [11] = test: as above; details: 72 h
Description: as §1

BT-474 Tam1 [12] = test: relative IC50 (midpoint of fitted logistic curve, plateau may be below 50% inhibition; CellTiter-Glo viability); higher = less potent; details: 4-OH-tamoxifen in medium 1 µM; 72 h
Description: (§2)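 FIMM FO2B library drugs were plated at 5 concentrations spanning a 10,000-fold range in 384-well plates. Cells were incubated for 72 h at 37 °C and viability was read by CellTiter-Glo, normalised to DMSO (0% inhibition) and 100 µM benzethonium chloride (100% inhibition). IC50 values come from logistic dose-response fits (Breeze pipeline). Tamoxifen-resistant lines and the 'in 1µM tamoxifen' parental arms were tested in medium with 1 µM 4-OH-tamoxifen.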

BT-474 Tam2 [13] = test: as above; details: 4-OH-tamoxifen in medium 1 µM; 72 h
Description: as §2

BT-474 [14] = test: as above; details: 72 h
Description: as §2

T-47D [15] = test: as above; details: 72 h
Description: as §2

ZR-75-1 Tam1 [16] = test: as above; details: 4-OH-tamoxifen in medium 1 µM; 72 h
Description: as §2

ZR-75-1 [17] = test: as above; details: 72 h
Description: as §2

MCF-7 [18] = test: as above; details: 72 h
Description: as §2

ZR-75-1 Tam2 [19] = test: as above; details: 4-OH-tamoxifen in medium 1 µM; 72 h
Description: as §2

BT-474 Tam1 [20] = test: viability inhibition at highest dose (% inhibition); higher = more growth inhibition; details: 4-OH-tamoxifen in medium 1 µM; 72 h
How it was run: (§3)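 CellTiter-Glo viability was the readout, taken on a PHERAstar and normalised to vehicle-only and positive controls. It was measured after breast cancer cell lines and their resistant derivatives spent 72 h at 37 °C in 384-well plates containing library drugs at five concentrations spanning a 10 000-fold range, with 1 μM of the selecting drug in the medium of resistant lines. From logistic dose–response fits in the Breeze pipeline came drug sensitivity score, relative IC50 (curve midpoint) and top-dose inhibition.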

BT-474 Tam2 [21] = test: as above; details: 4-OH-tamoxifen in medium 1 µM; 72 h
How it was run: as §3

BT-474 [22] = test: as above; details: 72 h
How it was run: as §3

MCF-7 Tam1 [23] = test: as above; details: 4-OH-tamoxifen in medium 1 µM; 72 h
How it was run: as §3

MCF-7 [24] = test: as above; details: 72 h
How it was run: as §3

T-47D Tam1 [25] = test: as above; details: 4-OH-tamoxifen in medium 1 µM; 72 h
How it was run: as §3

T-47D Tam2 [26] = test: as above; details: 4-OH-tamoxifen in medium 1 µM; 72 h
How it was run: as §3

T-47D [27] = test: as above; details: 72 h
How it was run: as §3

ZR-75-1 Tam1 [28] = test: as above; details: 4-OH-tamoxifen in medium 1 µM; 72 h
How it was run: as §3

ZR-75-1 Tam2 [29] = test: as above; details: 4-OH-tamoxifen in medium 1 µM; 72 h
How it was run: as §3

ZR-75-1 [30] = test: as above; details: 72 h
How it was run: as §3

Row | Structure (SMILES) | drug sensitivity score (BT-474 Tam1 [1]) | drug sensitivity score (BT-474 Tam2 [2]) | drug sensitivity score (BT-474 [3]; 4-OH-tamoxifen in medium 0 µM) | drug sensitivity score (BT-474 [3]; 4-OH-tamoxifen in medium 1 µM) | drug sensitivity score (MCF-7 Tam1 [4]) | drug sensitivity score (MCF-7 [5]; 4-OH-tamoxifen in medium 0 µM) | drug sensitivity score (MCF-7 [5]; 4-OH-tamoxifen in medium 1 µM) | drug sensitivity score (T-47D Tam1 [6]) | drug sensitivity score (T-47D Tam2 [7]) | drug sensitivity score (T-47D [8]; 4-OH-tamoxifen in medium 0 µM) | drug sensitivity score (T-47D [8]; 4-OH-tamoxifen in medium 1 µM) | drug sensitivity score (ZR-75-1 Tam1 [9]) | drug sensitivity score (ZR-75-1 Tam2 [10]) | drug sensitivity score (ZR-75-1 [11]; 4-OH-tamoxifen in medium 0 µM) | drug sensitivity score (ZR-75-1 [11]; 4-OH-tamoxifen in medium 1 µM) | relative IC50 (BT-474 Tam1 [12]) | relative IC50 (BT-474 Tam2 [13]) | relative IC50 (BT-474 [14]; 4-OH-tamoxifen in medium 0 µM) | relative IC50 (T-47D [15]; 4-OH-tamoxifen in medium 1 µM) | relative IC50 (ZR-75-1 Tam1 [16]) | other results
1 | S=c1[nH]cnc2nc[nH]c12 [Mercaptopurine] | 0 | 0 | 0 | 1.43 | 0.313 | 0.509 | 2.88 | 0.0158 | 0 | 0 | 0 | 3.2 | 1.17 | 3.86 | 0 | > 10 µM | > 10 µM | > 10 µM | > 10 µM | 1.27 µM | relative IC50 (T-47D [15]; 4-OH-tamoxifen in medium 0 µM): > 10 µM; relative IC50 (ZR-75-1 [17]; 4-OH-tamoxifen in medium 0 µM): 1.17 µM
2 | COc1ccc(C2=N[C@@H](c3ccc(Cl)cc3)[C@@H](c3ccc(Cl)cc3)N2C(=O)N2CCNC(=O)C2)c(OC(C)C)c1 [Nutlin-3] | 1.52 | 2.34 | 0 | 0.0005 | 0.214 | 2.64 | 3.36 | 0.605 | 0.429 | 0 | 0 | 2.29 | 4.17 | 1.96 | 2.65 | 3.21 µM |  | > 10 µM | > 10 µM | 1.9 µM | relative IC50 (MCF-7 [18]; 4-OH-tamoxifen in medium 1 µM): 2.08 µM; relative IC50 (T-47D [15]; 4-OH-tamoxifen in medium 0 µM): > 10 µM; relative IC50 (ZR-75-1 Tam2 [19]): 1.35 µM; relative IC50 (ZR-75-1 [17]; 4-OH-tamoxifen in medium 0 µM): 2.79 µM
3 | O=C(c1ccc(OCCN2CCCCC2)cc1)c1c(-c2ccc(O)cc2)sc2cc(O)ccc12 [Raloxifene  HCl] | 1.74 | 1.14 | 0.75 | 2.42 | 0.681 | 3.69 | 1.88 | 0.0352 | 1.8 | 0.0005 | 0 | 0 | 0 | 0.0043 | 0.0503 | 4 µM | 4.22 µM |  | > 10 µM | > 10 µM | relative IC50 (BT-474 [14]; 4-OH-tamoxifen in medium 1 µM): 3.74 µM; relative IC50 (MCF-7 [18]; 4-OH-tamoxifen in medium 0 µM): 0.553 µM; relative IC50 (MCF-7 [18]; 4-OH-tamoxifen in medium 1 µM): 2.65 µM; relative IC50 (ZR-75-1 Tam2 [19]): > 10 µM
4 | CC[C@H](CO)Nc1nc(NCc2ccccc2)c2ncn(C(C)C)c2n1 [Seliciclib (Roscovitine)] | 0 | 0 | 0 | 0 | 0.0488 | 0.816 | 0.217 | 4 | 0.682 | 0 | 0 | 0 | 0 | 0 | 0 | > 10 µM | > 10 µM | > 10 µM | > 10 µM | > 10 µM | relative IC50 (BT-474 [14]; 4-OH-tamoxifen in medium 1 µM): > 10 µM; relative IC50 (T-47D [15]; 4-OH-tamoxifen in medium 0 µM): > 10 µM; relative IC50 (ZR-75-1 Tam2 [19]): > 10 µM; relative IC50 (ZR-75-1 [17]; 4-OH-tamoxifen in medium 0 µM): > 10 µM; relative IC50 (ZR-75-1 [17]; 4-OH-tamoxifen in medium 1 µM): > 10 µM
5 | C=CC[C@@H]1/C=C(\C)C[C@H](C)C[C@H](OC)[C@H]2O[C@@](O)(C(=O)C(=O)N3CCCC[C@H]3C(=O)O[C@H](/C(C)=C/[C@@H]3CC[C@@H](O)[C@H](OC)C3)[C@H](C)[C@@H](O)CC1=O)[C@H](C)C[C@@H]2OC [Tacrolimus (FK 506)] | 2.73 | 2.96 | 0 | 1.97 | 1.18 | 0.766 | 3.51 | 2.72 | 0.788 | 0 | 0 | 0.336 | 0.01 | 0 | 0.622 | 2.79 µM | 1.41 µM | > 10 µM | > 10 µM |  | relative IC50 (BT-474 [14]; 4-OH-tamoxifen in medium 1 µM): 3.13 µM; relative IC50 (MCF-7 [18]; 4-OH-tamoxifen in medium 1 µM): 1.23 µM; relative IC50 (T-47D [15]; 4-OH-tamoxifen in medium 0 µM): > 10 µM; relative IC50 (ZR-75-1 [17]; 4-OH-tamoxifen in medium 0 µM): > 10 µM
6 | COc1cc2nccc(Oc3ccc(NC(=O)Nc4cc(C)on4)c(Cl)c3)c2cc1OC [Tivozanib  (AV-951)] | 4.02 | 1.74 | 1.25 | 3.61 | 0.0468 | 0.0979 | 0.0672 | 0.968 | 0.444 | 0.499 | 0.378 | 0 | 0 | 0.0461 | 0 | 3.12 µM | 3.91 µM | 3.57 µM |  | > 10 µM | relative IC50 (BT-474 [14]; 4-OH-tamoxifen in medium 1 µM): 3.67 µM; relative IC50 (ZR-75-1 [17]; 4-OH-tamoxifen in medium 1 µM): > 10 µM
7 | O=P(O)(O)C(O)(Cn1ccnc1)P(=O)(O)O [Zoledronic acid] (drug 10000 nM) |  |  |  |  |  |  |  |  |  |  |  |  |  |  |  |  |  |  |  |  | viability inhibition at highest dose (BT-474 Tam1 [20]): 2.75; viability inhibition at highest dose (BT-474 Tam2 [21]): -6.19; viability inhibition at highest dose (BT-474 [22]; 4-OH-tamoxifen in medium 0 µM): -0.0303; viability inhibition at highest dose (BT-474 [22]; 4-OH-tamoxifen in medium 1 µM): -3.42; viability inhibition at highest dose (MCF-7 Tam1 [23]): -6.7; viability inhibition at highest dose (MCF-7 [24]; 4-OH-tamoxifen in medium 0 µM): -12.6; viability inhibition at highest dose (MCF-7 [24]; 4-OH-tamoxifen in medium 1 µM): -12.2; viability inhibition at highest dose (T-47D Tam1 [25]): -5.82; viability inhibition at highest dose (T-47D Tam2 [26]): 1.06; viability inhibition at highest dose (T-47D [27]; 4-OH-tamoxifen in medium 0 µM): -11.4; viability inhibition at highest dose (T-47D [27]; 4-OH-tamoxifen in medium 1 µM): -6.56; viability inhibition at highest dose (ZR-75-1 Tam1 [28]): -0.251; viability inhibition at highest dose (ZR-75-1 Tam2 [29]): -9.06; viability inhibition at highest dose (ZR-75-1 [30]; 4-OH-tamoxifen in medium 0 µM): -6.71; viability inhibition at highest dose (ZR-75-1 [30]; 4-OH-tamoxifen in medium 1 µM): -4.06

Source: the supplement of paper PMC4932681
